In paper PMC10747339 (Pharmaceutics, 2023):
Counter-ions that a name gives are not always drawn. Like-named read-outs stand apart in the source and are kept apart here.

How the values were obtained:
[1] = Phase solubility studies with cyclodextrins (Higuchi and Connors), complexation efficiency (Loftsson); assay type: physicochemical; details: phosphate buffer; for complexation efficiency (CE), range over the media: citrate buffer, WFI
Experimental: Cyclodextrins solutions (from 26 mM to 264 mM) were prepared within sodium citrate (50 mM, pH 3) and sodium phosphate (80 mM, pH 2.7) buffer solutions and WFI. […] Aliquots were drawn from these suspensions and filtered through a Pall Life Science (Cortland, NY, USA) 0.45 µm filter with a Versapore acrylic copolymer membrane before quantification. The pH of these suspensions was checked before filtration.
(§1) Quantification of mefloquine was performed using a Shimadzu® Nexera® high-performance liquid chromatography system (Kyoto, Japan). One microliter of samples was eluted on a 150 mm × 2.1 mm 1.7 µm octadodecyl Acquity® column (Waters, Milford, CT, USA) at 40 °C using an isocratic ammonia buffer(120 mM, pH 10):acetonitrile:methanol (40:40:20, v/v/v) mobile phase at a 1 mL/min flow rate. The samples were diluted to 1/10th with the mobile phase before injection. Quantification was performed at 283 nm with daily made calibration curves. This method was linear for concentrations ranging from 10 to 5000 mg/L. The limit of quantification was estimated at […] and the repeatability and intermediate fidelity were good (coefficient of variation < 5%) for concentrations ranging from 50 to 5000 mg/L.
Complexation efficiencies (CE) were determined from the phase solubility studies using the Loftsson method. CE = (D/CD)/(CD) = Slope/(1 − Slope) where (D/CD) is the concentration of dissolved complex; (CD) is the concentration of dissolved free CD, and Slope is the slope of the phase-solubility profile.

[2] = 19F NMR titration, association constant by 1:1 isotherm fit; assay type: physicochemical; details: D2O, 300 K, total 5 mM
Experimental: The stoichiometry of the complex was determined using Job’s method. […] The total molar concentration and the total volume were kept constant at 5 mM and 500 µL, respectively, and the molar ratio of each component was varied from 0 to 1. Corresponding ^19F NMR spectra were recorded. The observation of chemical shifts varying in a linear fashion with the concentrations of bound species was obtained and affords the corresponding Job plots as described elsewhere.
^19F NMR Titrations: the same experimental data set of Job plot titrations was used. The association constants were obtained by fitting a 1:1 isotherm according to the programs available at http://app.supramolecular.org/bindfit/ (accessed on 19 October 2023).

[3] = Solubility of mefloquine hydrochloride in buffer solutions and water for injection; assay type: physicochemical; details: for solubility at 24 h: thermodynamic from solid
Experimental: These suspensions were sonicated for 1 h and stirred for 24 h at 24 °C and protected from the light. Aliquots were drawn from these suspensions and filtered through a Pall Life Science (Cortland, NY, USA) 0.45 µm filter with a Versapore acrylic copolymer membrane before quantification. The pH of these suspensions was checked before filtration.
as §1

[4] = Photostability study (ICH), HPLC content; assay type: physicochemical; details: 168 days; for change in mefloquine content: 25 °C, 60% RH, 7500 Lux and 1.1 W/m^2; for color change: light exposure
Experimental: The solutions were stored in type 1 glass vials (n = 3 for each solution) sealed with a rubber septum. […] Photostability studies were conducted using the Binder KBF P240 climatic chamber (Tuttligen, Germany), equipped with UVA and visible illumination sources set at 7500 Lux and 1.1 W/m^2. The chamber was maintained at a temperature of 25 ± 2 °C and a relative humidity of 60 ± 5% during the 6-months study.
The method was adapted using pharmacopeia recommendations for utilization with the Phenomenex® Kinetex® 2.6 µm, 150 × 2.1 mm column (Torrance, CA, USA), featuring the same octadecyl stationary phase with a smaller particle size. By employing this column, the flow rate was optimized at 0.4 mL/min.

[5] = hydrochloride salt, cited from earlier work
[6] = piperidine's basicity; cited from earlier work
caco-2 = system: caco-2; set-up: method as in PMID 27045516; details: cited from earlier work
p-Gp = details: cited from earlier work

| Molecule | complexation efficiency (CE), range over the media [1] | average association constant (K1:1) [2] [M⁻¹] | solubility at 24 h ([3]; aqueous buffer, citrate buffer, pH 2.7, 24 °C) [µg/mL] | solubility at 24 h ([3]; aqueous buffer, phosphate buffer, pH 2.6, 24 °C) [µg/mL] | solubility at 24 h ([3]; aqueous buffer, phosphate buffer, pH 6.5, 24 °C) [µg/mL] | change in solubility, citrate buffer compared to phosphate buffer ([3]; same pH value) | solubility compared with previously reported ([3]; versus ref 4) | solubility at 24 h ([3]; water for injection (purified water), purified water, final pH 4.6, 24 °C) [µg/mL] | change in mefloquine content ([4]; 10 mg/mL in 200 mM RAMEB solution) | change in mefloquine content ([4]; 10 mg/mL in acetonitrile:water (50:50)) | color change ([4]; RAMEB solution) | color change ([4]; acetonitrile:water (50:50) solution) | additional peaks (degradation products) in chromatograms ([4]; both solutions) | solubility ([5]; acetate buffer, pH 4.5, 37 °C) [mg/mL] | solubility ([5]; water, pH 6.5, 37 °C) [mg/mL] | pKa [6] | permeability (caco-2) | p-Gp inhibition (p-Gp) | equivalents of cyclodextrin to achieve target concentration of 26.5 mM (10 mg/mL) mefloquine [1] |
| --- | --- | --- | --- | --- | --- | --- | --- | --- | --- | --- | --- | --- | --- | --- | --- | --- | --- | --- | --- |
| CC(O)COC[C@H]1O[C@@H]2O[C@H]3[C@H](O)[C@@H](O)[C@@H](O[C@H]4[C@H](O)[C@@H](O)[C@@H](O[C@H]5[C@H](O)[C@@H](O)[C@@H](O[C@H]6[C@H](O)[C@@H](O)[C@@H](O[C@H]7[C@H](O)[C@@H](O)[C@@H](O[C@H]8[C@H](O)[C@@H](O)[C@@H](O[C@H]1[C@H](O)[C@H]2O)O[C@@H]8COCC(C)O)O[C@@H]7COCC(C)O)O[C@@H]6COCC(C)O)O[C@@H]5COCC(C)O)O[C@@H]4COCC(C)O)O[C@@H]3COCC(C)O (stereo partly drawn) [HP-β-CD, hydroxypropyl-β-cyclodextrin] | 0.1–0.13 | 140.5 | – | – | – | – | – | – | – | – | – | – | – | – | – | – | – | – | – |
| OC(c1cc(C(F)(F)F)nc2c(C(F)(F)F)cccc12)C1CCCCN1 (stereo not drawn) [mefloquine, mefloquine hydrochloride] | – | – | 640 | 4810 | 780 | eight-fold decrease | two-fold higher | 4120 | No substantial change | No substantial change | No color change | No color change | did not reveal any additional peak appearances | 1.950 | 1.806 | 8.6 | around 9 × 10^−6 cm/s | moderate | – |
| randomly methylated β-cyclodextrin [RAMEB] | 0.31–0.38 | 333.4 | – | – | – | – | – | – | – | – | – | – | – | – | – | – | – | – | approximately two |
